{"source": "patent US7229757B2", "about": "“Compounds displayed on icosahedral phage and methods of using same” (Xenoport, Inc., priority 2001, dated 2007)", "target": "T1, human folate receptor (Homo sapiens, UniProt P15328)", "T1 construct": "KB cells, which express high levels of the human folate receptor; endogenous in cells; host or cells: KB cells", "T1 sequence (P15328 25-234)": "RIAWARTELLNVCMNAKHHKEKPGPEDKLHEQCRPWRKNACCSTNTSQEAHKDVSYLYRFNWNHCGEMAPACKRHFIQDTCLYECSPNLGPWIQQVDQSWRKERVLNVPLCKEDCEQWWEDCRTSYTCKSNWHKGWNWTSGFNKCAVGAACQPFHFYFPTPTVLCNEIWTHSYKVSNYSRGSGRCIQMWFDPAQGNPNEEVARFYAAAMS", "assay": "screening of the 36-member folate analog library on T7 phage for uptake into KB cells", "assay_type": "cell-based", "settings": "compound displayed on T7 phage", "method": "KB cells were grown adherently in folate-free RPMI with 5% fetal bovine serum in a T75 flask. Prior to screening the compound library the media was removed and replaced with folate-free RPMI containing 0.1% BSA. An aliquot of the folate-analog phage library (˜10^9 pfu) was added to the flask containing 10^7 KB cells and incubated for 2 h at 37° C. Following the incubation period, the cells were detached from the flask by adding PBS containing 5 mM EDTA and incubating for 5 minutes at 37° C. The cell suspension was transferred to a tube and cells were pelleted by centrifugation. The cells were washed 3× with PBS followed by a single wash with “stripping” buffer (50 mM glycine, pH 2.8, 500 mM NaCl, 2M urea, 2% polyvinylpyrolidone) to remove phage particles that were both specifically and non-specifically bound to the surface of the cells. The cell suspension was neutralized by the addition of one half volume of 1 M Tris and centrifuged to pellet the cells. Cells were then lysed with PBS containing 1% SDS to recover phage that were endocytosed. To determine the number of recovered phage particles the lysate was titered by preparing a series of dilutions, infecting BL21 cells and plating on LB agar plates. The plates were incubated for 2-3 h at 37° C. until plaques were clearly visible. […]", "data": [{"compound": "NNC(=O)COCCOCCNC(=O)CCC(NC(=O)c1ccc(NCc2cnc3nc(N)nc(O)c3n2)cc1)C(=O)O", "note": "(centres unmarked) [folate-hydrazide, Folate-hydrazide]", "values": [{"measurement": "share of sequenced random clones from the lysate carrying the clone's DNA tag", "setting": "21 sequences", "result": 38, "unit": "%"}, {"measurement": "enrichment of phage clone in the population recovered from the cell lysate (hybridization to library archive array)", "setting": "2 h at 37° C.", "result": "the only one enriched"}]}]}
